The target of one experiment is C1 (Homo sapiens, UniProt P02745+P02746+P02747). The note with it: Prystowsky et al. 1981, Lukas et al. 1981; cited from earlier work.
Experiment [1] deals with local cutaneous allergic reaction (Prausnitz-Kustner). The note with it: Hamburger 1975; cited from earlier work.
For experiment [2], the system named is systemic allergic disease. The note with it: after injection by the subcutaneous route; cited from earlier work.
Experiment [3] addresses T1, IgE Fc receptor of human basophils (Homo sapiens, UniProt P12319).
T1 construct: host or cells: human basophils
T1 sequence (P12319 26-257): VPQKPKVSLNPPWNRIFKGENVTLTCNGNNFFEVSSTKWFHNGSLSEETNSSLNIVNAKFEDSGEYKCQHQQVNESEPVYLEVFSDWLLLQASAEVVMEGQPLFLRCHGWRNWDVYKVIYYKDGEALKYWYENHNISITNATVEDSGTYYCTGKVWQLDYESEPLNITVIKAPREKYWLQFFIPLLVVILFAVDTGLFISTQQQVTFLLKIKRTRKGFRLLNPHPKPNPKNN
T1 sequence (Q01362 1-244 partner): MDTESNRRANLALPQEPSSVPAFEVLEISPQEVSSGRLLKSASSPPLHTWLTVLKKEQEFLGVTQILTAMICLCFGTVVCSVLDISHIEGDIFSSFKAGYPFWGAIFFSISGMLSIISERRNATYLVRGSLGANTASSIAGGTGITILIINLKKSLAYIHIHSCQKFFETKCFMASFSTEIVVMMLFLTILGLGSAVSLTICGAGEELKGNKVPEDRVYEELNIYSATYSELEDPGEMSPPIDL
T1 sequence (P30273 19-86 partner): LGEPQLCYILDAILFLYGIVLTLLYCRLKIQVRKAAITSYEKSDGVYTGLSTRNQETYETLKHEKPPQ
The note with it: Plummer et al. 1983; cited from earlier work.

For experiment [4], the system named is granulocytes, monocytes and macrophages. The note with it: in vitro; literature; cited from earlier work.
The test system of experiment [5] is human and rodent mast cells. The note with it: Stanworth et al. 1979; cited from earlier work.
In experiment [6] the test system is human monocyte IgG Fc receptors. The note with it: literature (Ciccimarra 1975; Stanworth 1982; Ratcliffe and Stanworth 1982); Tuftsin also 'ourselves'; cited from earlier work.
In the next experiment the test system is lymphocytes. The note with it: Morgan, Huguli and Weigle 1982; cited from earlier work.
The next experiment concerns the target T2, BASOPHIL Fc Receptor IgE (Homo sapiens, UniProt P12319).
T2 construct: the cells expressing surface Fc receptors formed rosettes; endogenous in cells; host or cells: basophils of a patient with basophilic chronic myelogenous leukemia
T2 sequence (P12319 26-257): T1 sequence (P12319 26-257)
T2 sequence (Q01362 1-244 partner): T1 sequence (Q01362 1-244 partner)
T2 sequence (P30273 19-86 partner): T1 sequence (P30273 19-86 partner)
Kind of experiment: Rosette inhibition assay, basophil IgE Fc receptor. The class given is binding. The note with it: basophils from a patient with basophilic chronic myelogenous leukemia; relative to monomeric myeloma IgE; NS = not significantly different from 0. The method, then:
(§1) The Fc receptor blocking activity of the subject peptides was assessed using well established techniques and procedures. In particular, a rosette assay was employed which uses either monomeric, chemically or heat aggregated human IgG or IgE obtained from human myeloma sera. (Gonzalez-Molina, et al., J. Clin. Invest., 59, 616 (1977); Spiegelberg, et al. in Immunoassays: Clinical Laboratory Techniques for the 1980's (Alan R. Liss: New York, 1980), pp. 287-300). The IgG or IgE is then adsorbed to ox-erythrocytes which has been previously treated with trypsin and pyruvic aldehyde. Fresh human cell PMNs, monocytes and basophils from a patient with basophilic chronic myelogenous leukemia or human cell lines (RPMI-8866, and Daudi for lymphocyte Fc receptors and U937 for monocyte/macrophage Fc receptors) were then incubated in the presence or absence of inhibitors (monomeric IgG or IgE or peptides) at equal concentrations for fifteen minutes before addition of the indicator oxerythrocytes. In the absence of inhibitors, the cells expressing surface Fc receptors formed rosettes, clusters of three or more indicator erythrocytes that bound to the cells by virtue of exposed Fc regions on the erythrocyte surface. Addition of inhibitor myeloma proteins or inhibitor peptides produced a reproducable reduction of rosette formation, […], phosphate buffered isotonic saline, was used alone as control and then multiplying the calculated quotient by 100.
(§2) Table 1 presents the inhibition observed by representative peptide inhibitors calculated as a percentage of the inhibition observed with intact, monomeric myeloma proteins. Thus, 50 percent inhibition implys that the peptide was 50% as inhibitory as the intact myeloma protein to which it was compared.

The target of experiment [7] is T3, LYMPHOCYTE Fc Receptor IgG (Homo sapiens, UniProt P31994).
T3 construct: the cells expressing surface Fc receptors formed rosettes; endogenous in cells; host or cells: RPMI-8866 / Daudi
T3 sequence (P31994 43-310): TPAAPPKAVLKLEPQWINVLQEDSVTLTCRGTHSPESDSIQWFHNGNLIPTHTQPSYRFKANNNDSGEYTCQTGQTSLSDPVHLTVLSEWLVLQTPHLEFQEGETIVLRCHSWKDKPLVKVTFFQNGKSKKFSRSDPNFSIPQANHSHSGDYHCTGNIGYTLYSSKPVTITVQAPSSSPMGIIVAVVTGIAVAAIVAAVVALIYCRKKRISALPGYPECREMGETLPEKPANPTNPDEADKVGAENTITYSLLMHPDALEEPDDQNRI
The experiment is described as follows: Rosette inhibition assay, lymphocyte IgG Fc receptor. It counts as binding. The note with it: RPMI-8866 and Daudi cell lines; relative to intact monomeric myeloma IgG at equal concentration; NS = not significantly different from 0. The method, then:
as §1, §2

Experiment [8] has as its target T4, LYMPHOCYTE Fc Receptor IgE (Homo sapiens, UniProt P06734).
T4 construct: the cells expressing surface Fc receptors formed rosettes; endogenous in cells; host or cells: RPMI-8866 / Daudi
T4 sequence (P06734 1-321): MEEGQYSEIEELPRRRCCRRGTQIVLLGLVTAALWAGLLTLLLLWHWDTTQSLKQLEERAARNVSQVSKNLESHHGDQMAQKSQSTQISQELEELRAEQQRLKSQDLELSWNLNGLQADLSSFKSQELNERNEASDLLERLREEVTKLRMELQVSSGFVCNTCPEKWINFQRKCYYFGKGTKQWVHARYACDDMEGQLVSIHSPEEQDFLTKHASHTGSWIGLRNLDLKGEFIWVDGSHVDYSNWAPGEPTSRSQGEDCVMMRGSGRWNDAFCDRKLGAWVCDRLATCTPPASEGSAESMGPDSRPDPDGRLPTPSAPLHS
The experiment is described as follows: Rosette inhibition assay, lymphocyte IgE Fc receptor. The note with it: RPMI-8866 and Daudi cell lines; relative to intact monomeric myeloma IgE at equal concentration; NS = not significantly different from 0. The class given is binding. The method, then:
as §1, §2

Experiment [9] addresses T5, MONOCYTE/MACROPHAGE Fc Receptor IgE (Homo sapiens, UniProt P06734).
T5 construct: the cells expressing surface Fc receptors formed rosettes; endogenous in cells; host or cells: fresh human monocytes or U937
T5 sequence (P06734 1-321): T4 sequence (P06734 1-321)
The experiment is described as follows: Rosette inhibition assay, monocyte/macrophage IgE Fc receptor. The class given is binding. The note with it: human monocytes or U937; relative to intact monomeric myeloma IgE at equal concentration; NS = not significantly different from 0. The protocol:
as §1, §2

Experiment [10] concerns macrophage IgG Fc receptors of mice. The note with it: Stanworth 1982; cited from earlier work.

Ends that are not written are not given here.

We go through 12 substances from patent US4579840A, “Method of blocking immune complex binding to immunoglobulin Fc receptors” (Immunetech Pharmaceuticals, priority 1983, dated 1986).

Sequence of C1 (P02745 23-245): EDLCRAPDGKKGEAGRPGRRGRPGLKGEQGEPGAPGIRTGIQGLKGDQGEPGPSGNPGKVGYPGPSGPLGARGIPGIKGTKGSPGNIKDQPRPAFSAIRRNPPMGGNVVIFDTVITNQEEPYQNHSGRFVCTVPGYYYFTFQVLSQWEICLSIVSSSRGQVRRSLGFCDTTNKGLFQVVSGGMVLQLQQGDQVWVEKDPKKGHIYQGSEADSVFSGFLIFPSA
Sequence of C1 (P02746 28-253): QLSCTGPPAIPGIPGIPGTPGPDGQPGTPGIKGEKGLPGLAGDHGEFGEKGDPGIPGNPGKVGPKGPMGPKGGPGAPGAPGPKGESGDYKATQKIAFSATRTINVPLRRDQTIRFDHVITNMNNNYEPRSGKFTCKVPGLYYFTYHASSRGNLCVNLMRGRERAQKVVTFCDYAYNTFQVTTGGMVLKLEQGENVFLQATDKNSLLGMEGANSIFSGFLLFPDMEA
Sequence of C1 (P02747 29-245): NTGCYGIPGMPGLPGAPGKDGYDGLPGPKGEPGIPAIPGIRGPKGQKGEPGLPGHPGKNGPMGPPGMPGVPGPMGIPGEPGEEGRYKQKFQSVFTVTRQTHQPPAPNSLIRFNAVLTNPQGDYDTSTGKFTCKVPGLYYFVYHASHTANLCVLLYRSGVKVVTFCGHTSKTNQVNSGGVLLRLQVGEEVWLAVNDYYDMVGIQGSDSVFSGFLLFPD
Sequence of C1 (P00736 18-705 partner): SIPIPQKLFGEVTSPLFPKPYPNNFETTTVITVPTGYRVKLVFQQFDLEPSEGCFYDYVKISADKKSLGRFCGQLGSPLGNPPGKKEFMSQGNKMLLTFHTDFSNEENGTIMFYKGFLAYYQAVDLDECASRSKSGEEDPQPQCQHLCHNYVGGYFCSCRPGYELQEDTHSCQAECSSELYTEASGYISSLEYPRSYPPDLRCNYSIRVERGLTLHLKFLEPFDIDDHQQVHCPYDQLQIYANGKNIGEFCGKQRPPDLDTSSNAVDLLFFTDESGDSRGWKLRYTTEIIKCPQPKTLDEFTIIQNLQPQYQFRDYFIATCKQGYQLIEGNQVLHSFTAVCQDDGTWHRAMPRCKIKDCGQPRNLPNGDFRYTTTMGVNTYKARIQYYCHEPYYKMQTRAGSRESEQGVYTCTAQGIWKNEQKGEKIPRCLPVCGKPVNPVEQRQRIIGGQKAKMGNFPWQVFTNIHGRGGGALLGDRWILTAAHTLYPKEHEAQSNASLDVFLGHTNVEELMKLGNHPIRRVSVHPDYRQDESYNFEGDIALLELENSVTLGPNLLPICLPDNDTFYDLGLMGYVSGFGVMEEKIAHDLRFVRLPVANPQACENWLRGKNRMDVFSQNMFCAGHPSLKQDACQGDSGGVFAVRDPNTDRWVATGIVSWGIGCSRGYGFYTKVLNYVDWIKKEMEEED
Sequence of C1 (P09871 16-688 partner): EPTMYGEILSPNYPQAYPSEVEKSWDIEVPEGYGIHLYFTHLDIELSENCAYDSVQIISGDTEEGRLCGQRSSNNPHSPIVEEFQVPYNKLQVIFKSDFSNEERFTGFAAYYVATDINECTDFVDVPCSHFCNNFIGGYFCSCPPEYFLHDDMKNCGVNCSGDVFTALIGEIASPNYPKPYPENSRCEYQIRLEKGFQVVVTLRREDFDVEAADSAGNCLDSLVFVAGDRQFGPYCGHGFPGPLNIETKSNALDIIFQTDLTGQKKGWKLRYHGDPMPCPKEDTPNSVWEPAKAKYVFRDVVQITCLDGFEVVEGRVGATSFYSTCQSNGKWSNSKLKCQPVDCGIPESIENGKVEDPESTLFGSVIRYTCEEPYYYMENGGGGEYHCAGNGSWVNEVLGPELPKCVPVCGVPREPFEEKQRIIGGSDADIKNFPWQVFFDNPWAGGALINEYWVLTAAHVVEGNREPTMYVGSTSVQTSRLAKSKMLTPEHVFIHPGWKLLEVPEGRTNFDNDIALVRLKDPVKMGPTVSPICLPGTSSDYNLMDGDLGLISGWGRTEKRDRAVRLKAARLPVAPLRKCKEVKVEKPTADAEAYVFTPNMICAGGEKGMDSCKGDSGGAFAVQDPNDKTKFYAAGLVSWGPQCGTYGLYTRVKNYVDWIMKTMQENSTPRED

As for Ac-Phe-Asn-Trp-Tyr-Val (Ac-FNWYV), the “inhibition of C1-mediated hemolysis” value with C1 is recorded as “less active”. As for “Asp-Ser-Asp-Pro-Arg (DSDPR; printed: Asp-Ser-Asp-Pro-Arg)”, the “inhibition of local cutaneous allergic reaction (Prausnitz-Kustner)” value in experiment [1] is given as “approximately 90%”. Also, the “effect on systemic allergic disease in humans” value in experiment [2] is reported as “inhibit systemic allergic disease”. Further, the “block of human IgE binding to basophil IgE Fc receptors” value in experiment [3] is listed as “up to 70%”.

On to FNWYVDGVQVHNAKTK, for which the “inhibition of C1-mediated hemolysis” value on C1 is listed as “less active”. In the case of GVQVHNAKTK, the “inhibition of C1-mediated hemolysis” value with C1 is reported as “approximately as active as inhibitors as intact monomeric IgG”.

For “Gly-Gln-Pro-Arg (GQPR; printed: Gly-Gln-Pro-Arg) [Rigin]”, in experiment [4], the stimulation of phagocytosis entry was “phagocytosis-stimulating abilities similar to those of Tuftsin”. Take PRKTKGSGFFVF: the “degranulation of mast cells” value in experiment [5] is given as “able to cause degranulation”. With QYDSTYR, in experiment [6], the “blocking of human IgG binding to human monocyte IgG Fc receptors” value was “could slightly block”. TISKAKGQPREPQVYTLPSREEM: the “nonspecific activation of lymphocytes” value with lymphocytes is “induce polyclonal B cell proliferation, antigen-specific antibody responses and Natural Killer (NK) cell-mediated lysis”. TVLHQNWLDGK: the “Rosette inhibition expressed as percent inhibition by monomeric IgE; basophil Fc receptor, IgE” value at BASOPHIL Fc Receptor IgE is 100%. Moreover, the “Rosette inhibition expressed as percent inhibition by monomeric IgG; lymphocyte Fc receptor, IgG” value in experiment [7] is on record as 34%. Also, the “Rosette inhibition expressed as percent inhibition by monomeric IgE; lymphocyte Fc receptor, IgE” value in experiment [8] came to 95%. Moreover, in experiment [9], the “Rosette inhibition expressed as percent inhibition by monomeric IgE; monocyte/macrophage Fc receptor, IgE” value came to 95%. Turning to “Thr-Lys-Pro-Arg (TKPR; printed: Thr-Lys-Pro-Arg) [Tuftsin]”, the stimulation of phagocytosis entry in [4] is “active at nanomolar concentrations”. In addition, the “inhibition of C1-mediated hemolysis” value in the experiment with C1 is reported as “less active”. Moreover, the “blocking of human IgG binding to human monocyte IgG Fc receptors” value in experiment [6] is “competitively inhibits”. On to VFSRLEVTRAE, for which the “binding of 125I-human IgG to mouse macrophages” value in [10] is given as “marked enhancement”. In the case of “Val-Gln-Val-His-Asn-Ala-Lys-Thr-Lys-Pro-Arg-OH (VQVHNAKTKPR-OH)”, the “inhibition of C1-mediated hemolysis” value with C1 is on record as “approximately as active as inhibitors as intact monomeric IgG”.
